Results: PMC3688948, “Distinctive G Protein-Dependent Signaling by Protease-Activated Receptor 2 (PAR2) in Smooth Muscle: Feedback Inhibition of RhoA by cAMP-Independent PKA” (PLoS ONE, 2013)
Read-outs that look alike come from different tables or passages of the source. Peptide text beside a SMILES is read from it. * marks the point of attachment. Myristoyl = CCCCCCCCCCCCCC(=O)*; Cbz = O=C(OCc1ccccc1)*

Legend:
PAR2 [1] = target: T1, PAR2 (Oryctolagus cuniculus, UniProt G1SHU9); format: cell-based, rabbit
T1 construct: Freshly dispersed muscle cells labelled with myo-2-[^3H]inositol were incubated with different concentrations of PAR2-AP for 60 s; endogenous in cells; host or cells: freshly dispersed and primary cultured rabbit gastric smooth muscle cells
T1 sequence (G1SHU9 25-397): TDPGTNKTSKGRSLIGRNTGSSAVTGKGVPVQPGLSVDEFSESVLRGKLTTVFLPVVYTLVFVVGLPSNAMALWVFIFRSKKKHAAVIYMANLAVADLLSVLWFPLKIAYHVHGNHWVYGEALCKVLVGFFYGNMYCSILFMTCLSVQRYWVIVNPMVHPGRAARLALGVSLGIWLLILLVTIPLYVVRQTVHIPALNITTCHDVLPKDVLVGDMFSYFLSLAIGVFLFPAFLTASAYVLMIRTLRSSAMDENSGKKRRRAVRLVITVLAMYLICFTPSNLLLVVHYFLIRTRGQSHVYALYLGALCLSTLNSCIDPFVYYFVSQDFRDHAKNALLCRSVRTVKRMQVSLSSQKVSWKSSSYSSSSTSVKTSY

Rho kinase = Rho kinase activity (immunokinase assay), PAR2-AP-stimulated or basal; format: cell-based, rabbit; details: for basal Rho kinase activity with inhibitor alone / effect of inhibitor on PAR2-AP-induced Rho kinase activity: IKK IV 10 µM; for basal Rho kinase activity with inhibitor alone: MG-132 10 µM or myristoylated PKI 1 µM alone, basal 3125±502 cpm/mg protein, n = four; for effect of inhibitor on PAR2-AP-induced Rho kinase activity: MG-132 10 µM or myristoylated PKI 1 µM, PAR2-AP 1 µM 10 min, freshly dispersed cells, P<0.01
[2] = test system: dispersed gastric smooth muscle cells; details: for contraction (decrease in cell length), comparator agonists: other contractile agonists, concentration not given; for effect of inhibitor on sustained (10 min) contraction by PAR2-AP: inhibitor 10 min (U73122 10 µM, ML-9 10 µM, bisindolylmaleimide 1 µM, Y27632 1 µM), then PAR2-AP 1 µM 10 min
adenylyl cyclase = experiment: Forskolin-stimulated cAMP formation (adenylyl cyclase activity); format: cell-based, rabbit; details: forskolin 10 µM, 10 min, 100 µM isobutyl methyl xanthine; basal 2.8±0.5 pmol/mg protein; n = 4
Description: Adenylyl cyclase activity was measured by the formation of cAMP in response to agonists by radioimmunoassay using [^125I]cAMP [18], [21]. One ml (3×10^6 cells/ml) of cell suspension was treated for 60 s with forskolin (10 µM) in the presence of 100 µM isobutylmethyl xanthine, either alone or in combination with PAR2-AP (1 µM). The reaction was terminated with cold 6% trichloroacetic acid (v/v) and vortexed vigorously. After centrifugation, the supernatants were extracted three times with water-saturated diethyl ether to remove the tricholoroacetic acid and the samples were then lyophilized and frozen at –20°C. The samples were reconstituted for radioimmunoassay in 50 µl of 50 mM sodium acetate (pH 6.2) and acetylated with triethylamine/acetic anhydride (2∶1 v/v) for 30 min. […] The results are expressed as pmol of cAMP/mg protein.
Cyclic AMP formation was measured in freshly dispersed muscle cells in the presence of 100 µM isobutylmethylxanthine. Muscle cells were treated with PAR2-AP (1 µM) alone, forskolin (FSK, 10 µM) alone or forskolin plus PAR2-AP (1 µM) for 60 s and cAMP was measured by radioimmunoassay. In some experiments cells were treated with pertussis toxin (PTx, 200 ng/ml) for 60 min, and then treated with forskolin (10 µM) and PAR2-AP (1 µM) for 60 s. Results are expressed as pmol/mg protein.

PAR2 [3] = target: T1, PAR2; experiment: PAR2 expression (western blot); format: cell-based, rabbit; details: transfection with PAR2-specific siRNA for 48 h, cultured cells
[4] = test system: NF-kB/PKA catalytic subunit complex; experiment: Association of PKA catalytic subunit with NF-kB (co-immunoprecipitation); format: cell-based, rabbit; details: cells transfected with PAR2-specific siRNA, PAR2-AP 10 min
[5] = target: Protease-activated receptor 2 (PAR2) (rabbit (endogenous in gastric smooth muscle cells))
[6] = inhibitor 10 min (U73122 10 µM, ML-9 10 µM, bisindolylmaleimide 1 µM, Y27632 1 µM) or PTx 200 ng/ml 60 min, then PAR2-AP 1 µM 30 s

trypsin
PI hydrolysis above basal levels, trypsin (PAR2 [1]; trypsin 1 µM, basal 439±68 cpm/mg protein): 2653±302 cpm/mg protein

CC(C)C[C@@H](C=O)NC(=O)[C@H](CC(C)C)NC(=O)[C@H](CC(C)C)NC(=O)OCc1ccccc1 [MG-132] (Cbz-Leu-Leu-Leu-aldehyde)
basal Rho kinase activity with inhibitor alone (Rho kinase; no effect): 2859±602 cpm/mg protein | effect of inhibitor on PAR2-AP-induced Rho kinase activity (Rho kinase): significantly augmented

cholecystokinin
contraction (decrease in cell length), comparator agonists [2]: 29±2%

C=C[C@@]1(C)CC(=O)[C@]2(O)[C@@]3(C)[C@@H](O)CCC(C)(C)[C@@H]3[C@H](O)[C@H](OC(C)=O)[C@@]2(C)O1 [forskolin]
cAMP formation above basal level (adenylyl cyclase): 22.1±1.86 pmol/mg protein

PAR2 siRNA: PAR-2 (ID#s453494): sense: 5′ CCUCCUCUCUGUCAUCUGGTT 3′, antisense: 5′ CCAGAUGACAGAGAGGAGGTC3′ (chemistry not given here)
inhibition of PAR2-AP-stimulated PI hydrolysis by PAR2 siRNA (PAR2 [1]; cultured cells transfected with PAR2 siRNA, PAR2-AP 1 µM 60 s, p<0.001, n = four): 83±6% | expression of PAR2 (PAR2 [3]): greatly suppressed the expression of PAR2 | effect of PAR2 siRNA on PAR2-AP-induced NF-kB and PKA catalytic subunit dissociation [4]: blocked

bisindolylmaleimide
effect of inhibitor on initial (30 s) contraction by PAR2-AP [2]: not affected | effect of inhibitor on sustained (10 min) contraction by PAR2-AP [2]: not

CC(=O)OCC[N+](C)(C)C [acetylcholine]
contraction (decrease in cell length), comparator agonists [2]: 31±3%

C[C@@H](N)[C@H]1CC[C@H](C(=O)Nc2ccncc2)CC1 [Y27632]
basal Rho kinase activity with Y27632 alone (Rho kinase; Y27632 1 µM alone, basal 3363±587 cpm/mg protein, no effect): 3025±425 cpm/mg protein | effect of inhibitor on initial (30 s) contraction by PAR2-AP [2, 6]: not affected | effect of inhibitor on sustained (10 min) contraction by PAR2-AP [2]: preferentially blocked

NCCc1c[nH]c2ccc(O)cc12 [5-hydroxytryptamine]
contraction (decrease in cell length), comparator agonists [2]: 30±4%

O=S(=O)(c1cccc2c(Cl)cccc12)N1CCCNCC1 [ML-9]
effect of inhibitor on initial (30 s) contraction by PAR2-AP [2, 6]: abolished | effect of inhibitor on sustained (10 min) contraction by PAR2-AP [2]: not

NC(=O)Nc1sc(-c2ccc(F)cc2)cc1C(N)=O [IKK IV]
basal Rho kinase activity with inhibitor alone (Rho kinase; no effect): 3021±486 cpm/mg protein | effect of inhibitor on PAR2-AP-induced Rho kinase activity (Rho kinase): significantly augmented

COc1ccc2c(c1)CC[C@@H]1[C@@H]2CC[C@]2(C)[C@@H](NCCCCCCN3C(=O)C=CC3=O)CC[C@@H]12 [U73122]
inhibition of PAR2-AP-stimulated PI hydrolysis by U73122 (PAR2 [1]; U73122 10 µM 10 min, then PAR2-AP 1 µM 60 s, freshly dispersed cells): abolished | PI hydrolysis with inhibitor alone (PAR2 [1]; no PAR2-AP, U73122 10 µM 10 min or PTx 200 ng/ml 60 min, basal 520±66 cpm/mg protein, no effect on basal): 485±86 cpm/mg protein | effect of inhibitor on initial (30 s) contraction by PAR2-AP [2, 6]: abolished | effect of inhibitor on sustained (10 min) contraction by PAR2-AP [2]: not

myristoylated PKI: membrane-permeable specific PKA inhibitory peptide, myristoylated PKI 14-22 amide (Myristoyl-SGRTGRRNA-NH2; SMILES CCCCCCCCCCCCCC(=O)N[C@@H](CO)C(=O)NCC(=O)N[C@@H](CCCNC(=N)N)C(=O)N[C@H](C(=O)NCC(=O)N[C@@H](CCCNC(=N)N)C(=O)N[C@@H](CCCNC(=N)N)C(=O)N[C@@H](CC(N)=O)C(=O)N[C@@H](C)C(N)=O)[C@@H](C)O; UniProt P61925 14-22, looked up, fragment)
basal Rho kinase activity with inhibitor alone (Rho kinase; no effect): 3254±574 cpm/mg protein | effect of inhibitor on PAR2-AP-induced Rho kinase activity (Rho kinase): significantly augmented

SLIGRL [PAR2-activating peptide (PAR2-AP, SLIGRL)]
stimulation of PI hydrolysis in freshly dispersed rabbit gastric smooth muscle cells, concentration-dependent (EC50) [5]: 2 nM
